Broadly, the IC50 is the concentration that inhibits the measured activity by half. A low value points to higher potency. A word on the inhibition: it is the relative decrease from the control value, in per cent. By IC70 is commonly meant the point of the concentration-response curve where the effect stands at 70%.

A value given as a limit tells only on which side of the number the result lay.

The nature of assay [1]: Antiproliferative activity against human BE(2)-C cells at 50 uM after 72 hrs by Alamar blue assay. Type of assay: functional. Background: Alamar Blue is a resazurin reagent that responds to reducing activity.
Assay [2] addresses T1, Histone deacetylase 1 (Homo sapiens, UniProt Q13547). In words: Inhibition of HDAC1 by fluorometric assay.
Assay [3] has as its target T1, Histone deacetylase 1. In words: Inhibition of HDAC1 at 250 uM by fluorometric assay.
In assay [4] the target is Histone deacetylase (Homo sapiens) (UniProt Q13547+O15379+Q9UBN7+Q92769+Q9UQL6+Q8WUI4+Q9BY41+Q96DB2+P56524+Q9UKV0+Q969S8). In words: Inhibition of HDAC in human HeLa cell extracts at 1 uM. Type of assay: protein assay.
A short description of assay [5]: Antiproliferative activity against human BE(2)-C cells after 72 hrs by Alamar blue assay. Type of assay: functional, cell-based.

T1 sequence (Q13547 whole entry): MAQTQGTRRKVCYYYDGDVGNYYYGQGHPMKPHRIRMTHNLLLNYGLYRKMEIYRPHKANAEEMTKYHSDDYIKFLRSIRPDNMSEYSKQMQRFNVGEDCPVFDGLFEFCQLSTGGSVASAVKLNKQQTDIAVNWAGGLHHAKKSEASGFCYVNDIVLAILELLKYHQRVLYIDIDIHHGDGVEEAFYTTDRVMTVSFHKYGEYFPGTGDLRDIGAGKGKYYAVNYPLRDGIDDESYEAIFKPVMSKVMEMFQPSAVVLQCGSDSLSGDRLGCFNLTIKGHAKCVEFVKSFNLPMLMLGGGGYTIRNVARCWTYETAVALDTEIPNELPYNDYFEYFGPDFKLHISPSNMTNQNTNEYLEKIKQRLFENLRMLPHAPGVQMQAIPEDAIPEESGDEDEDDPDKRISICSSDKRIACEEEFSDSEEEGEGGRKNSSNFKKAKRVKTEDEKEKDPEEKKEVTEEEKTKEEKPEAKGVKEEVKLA

Compound `O=C(CCNC(=O)Cc1ccc([N+](=O)[O-])cc1)NO` returned an Activity in assay [1] of 87.9%. This compound also displayed an IC50 in assay [2] of 39.4 µM.
For `Cc1ccc(OCC(=O)NCCC(=O)NO)cc1` the same measures were 80.4% and 84 µM.
Turning to `CN(C)c1ccc(/C=C/C(=O)NCCC(=O)NO)cc1`, the Activity in assay [1] came to 57%. Besides, the inhibition in assay [3] turned out to be 40%. The compound also registered an IC50 in assay [2] of over 250 µM.
For `CN(C)c1ccc(CC(=O)NCCC(=O)NO)cc1`, the Activity in assay [1] worked out at 62.8%. Further, the IC50 in assay [2] was found to be 38 µM.
As to `O=C(/C=C/c1ccccc1)NCCC(=O)NO`, the Activity in assay [1] turned out to be 88.6%. In addition, in assay [2], the IC50 amounted to 67 µM. In assay [4], this compound registered an inhibition of 19%.
In assay [5], `CC(/C=C/C(=O)NO)=C\[C@@H](C)C(=O)c1ccc(N(C)C)cc1` [TRICHOSTATIN] registered an IC70 of 0.05 µM.
`Cc1ccc(CCC(=O)NCCC(=O)NO)cc1` came in with an Activity in assay [1] of 72.4%. The compound further gave an IC50 in assay [2] of 80 µM.

Values taken from ChEMBL document CHEMBL2086348, “Amide-based derivatives of β-alanine hydroxamic acid as histone deacetylase inhibitors: attenuation of potency through resonance effects” (Bioorg Med Chem Lett, 2012).
